Structures are written as SMILES.

The record followed here is PMC12935919 (Frontiers in Pharmacology, 2026).

This test relates to C2C12 myotubes. The test is described as follows: DEX-induced muscle atrophy model, Western blot. In kind it is cell-based. Conditions: 10 μM DEX 24 h, alone or with 10 or 100 μM Myoki. Here is the method:
To induce C2C12 myotube differentiation, myoblasts were seeded in 6-well plates at 5 × 10^5 cells per well. Once reaching 90% confluency, they were cultured in DMEM supplemented with 2% horse serum (Thermo Fisher Scientific) and 1% penicillin-streptomycin. […] Differentiation was observed using an optical microscope (LEICA, 100×). Myotube morphology (length and diameter) was quantified in ImageJ (NIH) using the same images: myotube length was measured by tracing the long axis of each myotube (end-to-end), and myotube diameter was measured as the short-axis width at three positions along each myotube; the mean of the three width values was recorded as the diameter. For each experimental group, three randomly captured images (fields) were analyzed, and at least 15–20 myotubes per image were quantified under identical imaging settings.
Treated C2C12 cells (5 × 10^5 cells/well) were harvested in lysis buffer (Sigma-Aldrich, 2910) and centrifuged at 12,000 g for 10 min; proteins in the supernatant were collected. Protein concentrations were measured using the BCA Protein Assay Kit (Thermo Fisher Scientific). Each 20 μg sample was separated using 10% SDS–PAGE and transferred onto a polyvinylidene fluoride membrane (Millipore, Burlington, MA, USA). Non-specific binding was blocked with 5% non-fat dry milk for 1 h. The membranes were incubated overnight with primary antibodies: Anti-Myf5 (Abcam, ab125078), Anti-Myf6 (Abcam, ab182842), Anti-MyoD (Santa Cruz, sc-377460), Anti-MyoG (Santa Cruz, sc-52903), Anti-α-actinin (Santa Cruz, sc-17829), Anti-MYH3 (Santa Cruz, sc-53091), Anti-p-mTOR (Ser2448) (CST, #5536), Anti-p-Akt (Ser473) (CST, #9271), Anti-p-p70 S6 Kinase (Thr389) (CST, #9205), Anti-myostatin (Abcam, ab124721), Anti-atrogin-1/MAFbx (Santa Cruz, sc-166806), and Anti-MuRF1 (Santa Cruz, sc-398608). Membranes were then incubated for 1 h with HRP-conjugated secondary antibodies. Blot images were captured with the ECL system (Amersham, UK) and quantified using ImageJ.
Background: A western blot detects proteins with antibodies after separation by electrophoresis.

For the compound `C[C@@H]1C[C@H]2[C@@H]3CCC4=CC(=O)C=C[C@]4(C)[C@@]3(F)[C@@H](O)C[C@]2(C)[C@@]1(O)C(=O)CO` [DEX, dexamethasone, reference compound], the MuRF1 expression result is “significant increase”; the atrogin-1/MAFbx expression result is given as “significant increase”; the “expression levels of differentiated muscle fiber structural proteins” value was “significantly reduced”; the “phosphorylation levels of muscle growth signaling proteins (Akt, mTOR, p70S6K)” value is reported as “significantly reduced”.
